From PubChem BioAssay (NCI)
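Following 48 hours of exposure in 96-well plates, responses at five concentrations were used to interpolate endpoints linearly. TGI is the concentration that stops growth completely.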

How the values were obtained:
Assay in all cases: NCI anticancer screen, dose series, 48 h
NCI-H460 lung = system: NCI-H460 lung
HCT-116 colon = system: HCT-116 colon
KM20L2 colon = system: KM20L2 colon
SK-MEL-28 melanoma = system: SK-MEL-28 melanoma
TK-10 renal = system: TK-10 renal
SF-268 CNS = system: SF-268 CNS
NCI-H522 lung = system: NCI-H522 lung
HOP-62 NSCLC = system: HOP-62 NSCLC
HOP-92 NSCLC = system: HOP-92 NSCLC
SNB-75 CNS = system: SNB-75 CNS
SNB-78 CNS = system: SNB-78 CNS
EKVX NSCLC = system: EKVX NSCLC
A549 NSCLC = system: A549 NSCLC
K-562 leukemia = system: K-562 leukemia
SN12C renal = system: SN12C renal
IGROV1 ovarian = system: IGROV1 ovarian
A498 renal = system: A498 renal
HCC-2998 colon = system: HCC-2998 colon
SR leukemia = system: SR leukemia
SF-539 CNS = system: SF-539 CNS
OVCAR-5 ovarian = system: OVCAR-5 ovarian
OVCAR-4 ovarian = system: OVCAR-4 ovarian
M14 melanoma = system: M14 melanoma
HOP-18 NSCLC = system: HOP-18 NSCLC
SW-620 colon = system: SW-620 colon
SK-OV-3 ovarian = system: SK-OV-3 ovarian
MOLT-4 leukemia = system: MOLT-4 leukemia
RXF 393 renal = system: RXF 393 renal
CCRF-CEM leukemia = system: CCRF-CEM leukemia
DMS 114 small cell lung = system: DMS 114 small cell lung
UACC-62 melanoma = system: UACC-62 melanoma
UACC-257 melanoma = system: UACC-257 melanoma
DLD-1 colon = system: DLD-1 colon
XF 498 CNS = system: XF 498 CNS
RXF-631 renal = system: RXF-631 renal
ACHN renal = system: ACHN renal
KM12 colon = system: KM12 colon
CAKI-1 renal = system: CAKI-1 renal
OVCAR-8 ovarian = system: OVCAR-8 ovarian
HT29 colon = system: HT29 colon
DMS 273 small cell lung = system: DMS 273 small cell lung
M19-MEL melanoma = system: M19-MEL melanoma
SK-MEL-5 melanoma = system: SK-MEL-5 melanoma
SNB-19 CNS = system: SNB-19 CNS
U251 CNS = system: U251 CNS
SF-295 CNS = system: SF-295 CNS
HCT-15 colon = system: HCT-15 colon
UO-31 renal = system: UO-31 renal
786-0 renal = system: 786-0 renal
NCI-H23 lung = system: NCI-H23 lung
RPMI-8226 leukemia = system: RPMI-8226 leukemia
OVCAR-3 ovarian = system: OVCAR-3 ovarian
LXFL 529 NSCLC = system: LXFL 529 NSCLC
NCI-H226 lung = system: NCI-H226 lung
LOX IMVI melanoma = system: LOX IMVI melanoma
HL-60(TB) leukemia = system: HL-60(TB) leukemia
MALME-3M melanoma = system: MALME-3M melanoma
COLO 205 colon = system: COLO 205 colon
SK-MEL-2 melanoma = system: SK-MEL-2 melanoma

Q: For `O=C(CN1CCN(c2cccc(Cl)c2)CC1)N1CCc2c([nH]c3ccccc23)C1c1cccnc1` (centres undefined), which TGI (NCI-H460 lung) is on record?
A: 33.1 µM

Q: And the TGI (HCT-116 colon)?
A: 17 µM

Q: And the TGI (KM20L2 colon)?
A: 11.7 µM

Q: And the TGI (SK-MEL-28 melanoma)?
A: > 100 µM

Q: What about the TGI (TK-10 renal) of the same molecule?
A: > 100 µM

Q: What about the TGI (SF-268 CNS) of the same molecule?
A: > 100 µM

Q: What about the TGI (NCI-H522 lung) of the same molecule?
A: 48.6 µM

Q: What about the TGI (HOP-62 NSCLC) of the same molecule?
A: 63.9 µM

Q: And the TGI (HOP-92 NSCLC)?
A: 42 µM

Q: And the TGI (SNB-75 CNS)?
A: 26.6 µM

Q: And the TGI (SNB-78 CNS)?
A: > 100 µM

Q: What about the TGI (EKVX NSCLC) of the same molecule?
A: 94.1 µM

Q: And the TGI (A549 NSCLC)?
A: > 100 µM

Q: And the TGI (K-562 leukemia)?
A: 17.8 µM

Q: What about the TGI (SN12C renal) of the same molecule?
A: > 100 µM

Q: What about the TGI (IGROV1 ovarian) of the same molecule?
A: > 100 µM

Q: And the TGI (A498 renal)?
A: 67.9 µM

Q: What about the TGI (HCC-2998 colon) of the same molecule?
A: 21.6 µM

Q: What about the TGI (SR leukemia) of the same molecule?
A: 7.19 µM

Q: And the TGI (SF-539 CNS)?
A: 42.3 µM

Q: And the TGI (OVCAR-5 ovarian)?
A: 45.2 µM

Q: And the TGI (OVCAR-4 ovarian)?
A: 75.7 µM

Q: What about the TGI (M14 melanoma) of the same molecule?
A: 19.4 µM

Q: What about the TGI (HOP-18 NSCLC) of the same molecule?
A: 97.8 µM

Q: And the TGI (SW-620 colon)?
A: 52 µM

Q: What about the TGI (SK-OV-3 ovarian) of the same molecule?
A: > 100 µM

Q: And the TGI (MOLT-4 leukemia)?
A: 6.94 µM

Q: What about the TGI (RXF 393 renal) of the same molecule?
A: 14.8 µM

Q: And the TGI (CCRF-CEM leukemia)?
A: 17.8 µM

Q: What about the TGI (DMS 114 small cell lung) of the same molecule?
A: 39.4 µM

Q: What about the TGI (UACC-62 melanoma) of the same molecule?
A: 39.3 µM

Q: And the TGI (UACC-257 melanoma)?
A: 35.4 µM

Q: And the TGI (DLD-1 colon)?
A: > 100 µM

Q: And the TGI (XF 498 CNS)?
A: 35.9 µM

Q: And the TGI (RXF-631 renal)?
A: 40.4 µM

Q: What about the TGI (ACHN renal) of the same molecule?
A: > 100 µM

Q: What about the TGI (KM12 colon) of the same molecule?
A: 20.2 µM

Q: What about the TGI (CAKI-1 renal) of the same molecule?
A: 54.7 µM

Q: And the TGI (OVCAR-8 ovarian)?
A: > 100 µM

Q: What about the TGI (HT29 colon) of the same molecule?
A: 15.9 µM

Q: And the TGI (DMS 273 small cell lung)?
A: 84.5 µM

Q: What about the TGI (M19-MEL melanoma) of the same molecule?
A: 68.6 µM

Q: And the TGI (SK-MEL-5 melanoma)?
A: 32.6 µM

Q: What about the TGI (SNB-19 CNS) of the same molecule?
A: > 100 µM

Q: What about the TGI (U251 CNS) of the same molecule?
A: 48.8 µM

Q: And the TGI (SF-295 CNS)?
A: 50.8 µM

Q: And the TGI (HCT-15 colon)?
A: > 100 µM

Q: What about the TGI (UO-31 renal) of the same molecule?
A: 57.7 µM

Q: What about the TGI (786-0 renal) of the same molecule?
A: 44.3 µM

Q: What about the TGI (NCI-H23 lung) of the same molecule?
A: 50.3 µM

Q: What about the TGI (RPMI-8226 leukemia) of the same molecule?
A: 5.26 µM

Q: And the TGI (OVCAR-3 ovarian)?
A: 42.2 µM

Q: Which TGI (NCI-H460 lung) does the source give for `CSc1cc(-c2cc3ccccc3o2)oc(=O)c1C#N` here?
A: > 100 µM

Q: And the TGI (HCT-116 colon)?
A: > 100 µM

Q: And the TGI (KM20L2 colon)?
A: > 100 µM

Q: And the TGI (SK-MEL-28 melanoma)?
A: > 100 µM

Q: What about the TGI (TK-10 renal) of the same molecule?
A: 73.4 µM

Q: What about the TGI (SF-268 CNS) of the same molecule?
A: > 100 µM

Q: What about the TGI (LXFL 529 NSCLC) of the same molecule?
A: > 100 µM

Q: What about the TGI (HOP-92 NSCLC) of the same molecule?
A: 2.33 µM

Q: And the TGI (NCI-H226 lung)?
A: 4.31 µM

Q: What about the TGI (SNB-75 CNS) of the same molecule?
A: > 100 µM

Q: And the TGI (SNB-78 CNS)?
A: > 100 µM

Q: What about the TGI (EKVX NSCLC) of the same molecule?
A: > 100 µM

Q: What about the TGI (A549 NSCLC) of the same molecule?
A: > 100 µM

Q: What about the TGI (K-562 leukemia) of the same molecule?
A: > 100 µM

Q: And the TGI (SN12C renal)?
A: > 100 µM

Q: And the TGI (IGROV1 ovarian)?
A: > 100 µM

Q: What about the TGI (A498 renal) of the same molecule?
A: > 100 µM

Q: And the TGI (HCC-2998 colon)?
A: > 100 µM

Q: What about the TGI (SR leukemia) of the same molecule?
A: 50 µM

Q: And the TGI (LOX IMVI melanoma)?
A: > 100 µM

Q: And the TGI (SF-539 CNS)?
A: > 100 µM

Q: And the TGI (OVCAR-5 ovarian)?
A: > 100 µM

Q: What about the TGI (OVCAR-4 ovarian) of the same molecule?
A: > 100 µM

Q: And the TGI (M14 melanoma)?
A: > 100 µM

Q: What about the TGI (HOP-18 NSCLC) of the same molecule?
A: > 100 µM

Q: And the TGI (SW-620 colon)?
A: > 100 µM

Q: And the TGI (MOLT-4 leukemia)?
A: > 100 µM

Q: What about the TGI (RXF 393 renal) of the same molecule?
A: > 100 µM

Q: What about the TGI (HL-60(TB) leukemia) of the same molecule?
A: > 100 µM

Q: What about the TGI (MALME-3M melanoma) of the same molecule?
A: > 100 µM

Q: And the TGI (CCRF-CEM leukemia)?
A: > 100 µM

Q: And the TGI (DMS 114 small cell lung)?
A: > 100 µM

Q: And the TGI (UACC-257 melanoma)?
A: > 100 µM

Q: What about the TGI (DLD-1 colon) of the same molecule?
A: > 100 µM

Q: What about the TGI (XF 498 CNS) of the same molecule?
A: > 100 µM

Q: What about the TGI (RXF-631 renal) of the same molecule?
A: > 100 µM

Q: What about the TGI (ACHN renal) of the same molecule?
A: > 100 µM

Q: And the TGI (KM12 colon)?
A: > 100 µM

Q: And the TGI (CAKI-1 renal)?
A: > 100 µM

Q: What about the TGI (OVCAR-8 ovarian) of the same molecule?
A: > 100 µM

Q: And the TGI (HT29 colon)?
A: > 100 µM

Q: And the TGI (DMS 273 small cell lung)?
A: > 100 µM

Q: And the TGI (COLO 205 colon)?
A: > 100 µM

Q: What about the TGI (SK-MEL-5 melanoma) of the same molecule?
A: > 100 µM

Q: And the TGI (SNB-19 CNS)?
A: > 100 µM

Q: What about the TGI (U251 CNS) of the same molecule?
A: > 100 µM

Q: What about the TGI (SF-295 CNS) of the same molecule?
A: > 100 µM

Q: And the TGI (HCT-15 colon)?
A: > 100 µM

Q: What about the TGI (UO-31 renal) of the same molecule?
A: > 100 µM

Q: What about the TGI (SK-MEL-2 melanoma) of the same molecule?
A: > 100 µM

Q: What about the TGI (NCI-H23 lung) of the same molecule?
A: > 100 µM

Q: And the TGI (RPMI-8226 leukemia)?
A: > 100 µM
